Among the data in patent US9315475B2 (MERCK SHARP & DOHME CORP., priority 2011, dated 2016) are EC50 values, retold here.

The subject of one assay is HIV-1 (H9IIIB strain). Description: Antiviral acute infection assay in cell culture (Spread). It is filed as cell-based. The following applies: HIV-1 H9IIIB infection of MT-4 human T-lymphoid cells in 10% FBS; mean of at least two independent experiments. An excerpt:
Antiviral Assays in Cell Culture (“Spread”)
Acute Infection Assay (“Spread”) data were generated using HIV-1 (H9IIIB strain) infection of MT-4 human T-lymphoid cells in 10% FBS, and according to the methods disclosed by J. P. Vacca et al, “L-735,524: An orally bioavailable human immunodeficiency virus type 1 protease inhibitor,” Proc. Natl. Acad. Sci. USA, Vol. 91, pp. 4096-4100 (April 1994).
As for `O=C(C[C@@H](c1ccc(F)cc1)c1ccc(OC(F)(F)F)cc1)Nc1cccc(F)c1CC[C@@H]1CN[C@H](COC(=O)NCC(F)(F)F)CO1` [Example 159, [(3S,6R)-6-{2-[2-fluoro-6-({(3R)-3-(4-fluorophenyl)-3-[4-(trifluoro-methoxy)phenyl]propanoyl}amino)phenyl]ethyl}morpholin-3-yl] methyl (2,2,2-trifluoroethyl)carbamate], the EC50 (commonly the concentration giving half of the maximal effect) came out at 380 nM.

Still in this assay, the particulars now being: Human immunodeficiency virus 1, T-lymphoid, HIV-1 H9IIIB infection of MT-4 human T-lymphoid cells in 10% FBS; mean of at least two independent experiments.
The molecule `COC(=O)N[C@H](C(=O)Nc1cccc(F)c1CC[C@@H]1CN[C@H](COC(=O)NCC(F)(F)F)CO1)[C@@H](c1ccc(Cl)cc1)c1ccncc1F` [Example 134, (βS)-4-Chloro-β-(3-fluoropyridin-4-yl)-N-(3-fluoro-2-{2-[(2R,5S)-5-({[(2,2,2-trifluoroethyl)carbamoyl]oxy}methyl)morpholin-2-yl]ethyl}phenyl)-Nα-(methoxycarbonyl)-L-phenylalaninamide] registered an EC50 of 28 nM.

In turn, `Cc1cc(C)n(CCNC(=O)OC[C@@H]2CO[C@H](CCc3c(F)cncc3NC(=O)CC(c3ccc(F)cc3)c3ccc(F)cc3)CN2)n1` [Example 172, {(3S,6R)-6-[2-(3-{[3,3-bis(4-fluoro-phenyl)propanoyl]amino}-5-fluoropyridin-4-yl)ethyl]morpholin-3-yl}methyl [2-(3,5-dimethyl-1H-pyrazol-1-yl)ethyl]carbamate] returned an EC50 of 60 nM.

Take `O=C(C[C@@H](c1ccc(Cl)cc1)c1ccc2c(c1)CCO2)Nc1cncc(F)c1CC[C@@H]1CN[C@H](COC(=O)NCC(F)(F)F)CO1` [Example 114, {(3S,6R)-6-[2-(3-{[(3S)-3-(4-Chlorophenyl)-3-(2,3-dihydro-1-benzofuran-5-yl)propanoyl]amino}-5-fluoropyridin-4-yl)ethyl]morpholin-3-yl}methyl (2,2,2-trifluoroethyl)carbamate]: a half-maximal effect (EC50) was put at 14 nM.

Regarding `CC1(C(=O)N[C@H](C(=O)Nc2cccc(F)c2CC[C@@H]2CN[C@H](COC(=O)NCC(F)(F)F)CO2)C(c2ccc(F)cc2)c2ccc(F)cc2)CC1` [Example 142, 4-Fluoro-β-(4-fluorophenyl)-N-(3-fluoro-2-{2-[(2R,5S)-5-({[(2,2,2-trifluoroethyl)carbamoyl]oxy}methyl)morpholin-2-yl]ethyl}phenyl)-Nα-[(1-methylcyclopropyl)carbonyl]-L-phenylalaninamide], the EC50 is 150 nM.

Consider `O=C(C[C@@H](c1ccc(F)cc1)c1ccncc1F)Nc1cccc(F)c1CC[C@@H]1CN[C@H](COC(=O)NCC(F)(F)F)CO1` [Example 138, {(3S,6R)-6-[2-(2-Fluoro-6-{[(3S)-3-(4-fluorophenyl)-3-(3-fluoropyridin-4-yl)propanoyl]amino}phenyl)ethyl]morpholin-3-yl}methyl (2,2,2-trifluoroethyl)carbamate], for which the EC50 turned out to be 31 nM.

With `O=C(CC(F)(F)F)NC[C@@H]1CO[C@H](CCc2c(F)cncc2NC(=O)CC(c2ccc(F)cc2)c2ccc(F)cc2)CN1` [Example 143, N-({(3R,6R)-6-[2-(3-{[3,3-Bis(4-fluorophenyl)propanoyl]amino}-5-fluoropyridin-4-yl)ethyl]morpholin-3-yl}methyl)-3,3,3-trifluoropropanamide], the response was half-maximal at 40 nM (EC50).

`N[C@H](C(=O)Nc1cccc(F)c1CC[C@@H]1CN[C@H](COC(=O)NCC(F)(F)F)CO1)[C@@H](c1ccc(Cl)cc1)c1ccncc1F` [Example 136, (βS)-4-Chloro-β-(3-fluoropyridin-4-yl)-N-(3-fluoro-2-{2-[(2R,5S)-5-({[(2,2,2-trifluoroethyl)carbamoyl]oxy}methyl)morpholin-2-yl]ethyl}phenyl)-L-phenylalaninamide] showed an EC50 of 60 nM.

`CNC(=O)OC[C@@H]1CO[C@H](CCc2c(F)cncc2NC(=O)CC(c2ccc(F)cc2)c2ccc(F)cc2)CN1` [Example 177, {(3S,6R)-6-[2-(3-{[3,3-bis(4-fluoro-phenyl)propanoyl]amino}-5-fluoropyridin-4-yl)ethyl]morpholin-3-yl}methyl methylcarbamate] showed an EC50 of 41 nM.

`COC(=O)N[C@H](C(=O)Nc1cncc(F)c1CC[C@@H]1CN[C@H](COC(=O)NCC(F)(F)F)CO1)[C@@H](c1ccc(Cl)cc1)c1cccc(OC(F)(F)F)c1` [Example 106, (βS)-β-(4-Chlorophenyl)-N-(5-fluoro-4-{2-[(2R,5S)-5-({[(2,2,2-trifluoroethyl)carbamoyl]oxy}methyl)morpholin-2-yl]ethyl}pyridin-3-yl)-Nα-(methoxycarbonyl)-3-(trifluoromethoxy)-L-phenylalaninamide]: the EC50 amounted to 6.5 nM.

Regarding `O=C(CC(c1ccc(F)cc1)c1ccc(F)cc1)Nc1cncc(F)c1CC[C@@H]1CN[C@H](COC(=O)NCC2CCCO2)CO1` (stereo partly drawn) [Example 169, {(3S,6R)-6-[2-(3-{[3,3-bis(4-fluoro-phenyl)propanoyl]amino}-5-fluoropyridin-4-yl)ethyl]morpholin-3-yl}methyl (tetrahydrofuran-2-ylmethyl)carbamate], it took 73 nM to reach a half-maximal effect (EC50).

The molecule `COC(=O)N[C@H](C(=O)Nc1cccc(F)c1CC[C@@H]1CN[C@H](COC(=O)NCC(F)(F)F)CO1)[C@@H](c1ccc(F)cc1)c1ccc(OC(F)(F)F)cc1` [Example 304, (βR)-β-(4-fluorophenyl)-N-(3-fluoro-2-{2-[(2R,5S)-5-({[(2,2,2-trifluoroethyl)carbamoyl]oxy}methyl)morpholin-2-yl]ethyl}phenyl)-Nα-(methoxy-carbonyl)-O-(trifluoromethyl)-L-tyrosinamide] gave an EC50 of 33 nM.

Regarding `O=C(CC(c1ccc(F)cc1)c1ccc(F)cc1)Nc1cncc(F)c1CC[C@@H]1CN[C@H](COC(=O)NC2c3ccccc3C[C@H]2O)CO1` (stereo partly drawn) [Example 185, {(3S,6R)-6-[2-(3-{[3,3-bis(4-fluoro-phenyl)propanoyl]amino}-5-fluoropyridin-4-yl)ethyl]morpholin-3-yl}methyl [(2R)-2-hydroxy-2,3-dihydro-1H-inden-1-yl]carbamate], the EC50 was 68 nM.

In the case of `O=C(CC(c1ccc(F)cc1)c1ccc(F)cc1)Nc1cncc(F)c1CC[C@@H]1CN[C@H](COC(=O)NCCNc2ccccc2)CO1` [Example 168, {(3S,6R)-6-[2-(3-{[3,3-bis(4-fluorophenyl)propanoyl]amino}-5-fluoropyridin-4-yl)ethyl]morpholin-3-yl}methyl [2-(phenyl-amino)ethyl]carbamate], the EC50 was 13 nM.

`NC(=O)[C@H]1CCCCC1NC(=O)OC[C@@H]1CO[C@H](CCc2c(F)cncc2NC(=O)CC(c2ccc(F)cc2)c2ccc(F)cc2)CN1` (stereo partly drawn) [Example 187, {(3S,6R)-6-[2-(3-{[3,3-bis(4-fluoro-phenyl)propanoyl]amino}-5-fluoropyridin-4-yl)ethyl]morpholin-3-yl}methyl [(2S)-2-carbamoylcyclohexyl] carbamate] showed a concentration for a half-maximal effect (EC50) of 210 nM.

Take `O=C(CC(F)(F)F)NC[C@@H]1CO[C@H](CCc2c(F)cccc2NC(=O)CC(c2ccc(F)cc2)c2ccc(F)cc2)CN1` [Example 144, N-({(3R,6R)-6-[2-(2-{[3,3-Bis(4-fluorophenyl)propanoyl]amino}-6-fluorophenyl)ethyl]morpholin-3-yl}methyl)-3,3,3-trifluoropropanamide]: the EC50 was determined as 170 nM.

`CC(C)C(NC(=O)OC[C@@H]1CO[C@H](CCc2c(F)cncc2NC(=O)CC(c2ccc(F)cc2)c2ccc(F)cc2)CN1)C(C)C` [Example 186, {(3S,6R)-6-[2-(3-{[3,3-bis(4-fluoro-phenyl)propanoyl]amino}-5-fluoropyridin-4-yl)ethyl]morpholin-3-yl}methyl [2-methyl-1-(1-methylethyl)propyl] carbamate]: the EC50 turned out to be 66 nM.

For `COc1ccc([C@H](CC(=O)Nc2cncc(F)c2CC[C@@H]2CN[C@H](COC(=O)NCC(F)(F)F)CO2)c2ccccc2)cc1Cl` [Example 179, {(3S,6R)-6-[2-(3-{[(3R)-3-(3-chloro-4-methoxyphenyl)-3-phenylpropanoyl]amino}-5-fluoropyridin-4-yl)ethyl]morpholin-3-yl}methyl (2,2,2-trifluoroethyl)carbamate], the EC50 was 240 nM.

On to `N[C@H](C(=O)Nc1cccc(F)c1CC[C@@H]1CN[C@H](COC(=O)NCC(F)(F)F)CO1)[C@H](c1ccc(Cl)cc1)c1ccc2c(c1)OCO2` [Example 100, {(3S,6R)-6-[2-(2-{[(3R)-3-(1,3-Benzodioxol-5-yl)-3-(4-chlorophenyl)-L-alanyl]amino}-6-fluorophenyl)ethyl]morpholin-3-yl}methyl (2,2,2-trifluoroethyl)carbamate], for which the EC50 was found to be 39 nM.

As to `O=C(C[C@H](c1ccc(F)cc1)c1ccc(Cl)c(F)c1)Nc1cncc(F)c1CC[C@@H]1CN[C@H](COC(=O)NCC(F)(F)F)CO1` [Example 182, {(3S,6R)-6-[2-(3-{[(3R)-3-(4-chloro-3-fluorophenyl)-3-(4-fluoro-phenyl)propanoyl]amino}-5-fluoropyridin-4-yl)ethyl]morpholin-3-yl}methyl (2,2,2-trifluoroethyl)carbamate], the EC50 came out at 17 nM.

For `N[C@H](C(=O)Nc1cccc(F)c1CC[C@@H]1CN[C@H](COC(=O)N[C@H]2CCCOC2)CO1)C(c1ccc(F)cc1)c1ccc(F)cc1` [Example 122, 4-Fluoro-β-(4-fluorophenyl)-N-(3-fluoro-2-{2-[(2R,5S)-5-({[(3S)-tetrahydro-2H-pyran-3-ylcarbamoyl]oxy}methyl)morpholin-2-yl]ethyl}phenyl)-L-phenylalaninamide], the EC50 came out at 44 nM.

For `N[C@H](C(=O)Nc1cncc(F)c1CC[C@@H]1CN[C@H](COC(=O)NCC(F)(F)F)CO1)[C@@H](c1ccc(Cl)cc1)c1cccc(OC(F)(F)F)c1` [Example 98, (βS)-β-(4-Chlorophenyl)-N-(5-fluoro-4-{2-[(2R,5S)-5-({[(2,2,2-trifluoroethyl)carbamoyl]oxy}methyl)morpholin-2-yl]ethyl}pyridin-3-yl)-3-(trifluoromethoxy)-L-phenylalaninamide], the EC50 stood at 28 nM.
